In one data set the test system is MCF7. Kind of data set: Antiproliferative activity in human MCF7 cells assessed as cell growth inhibition by MTT assay. The data set is classed as functional, cell-based.
The test system of the next data set is T47D. The data set can be described thus: Antiproliferative activity in human T47D cells assessed as cell growth inhibition by MTT assay. Type of data set: functional, cell-based. For orientation: Tetrazolium assays rely on reduction of a dye to a coloured formazan, in cell work by metabolically active cells.
Another data set has as its system EFM-19. The data set can be described thus: Antiproliferative activity in human EFM-19 cells assessed as cell growth inhibition by MTT assay. The data set is classed as functional, cell-based.
In another data set the test system is P388. The data set can be described thus: Antiproliferative activity in mouse P388 cells assessed as cell growth inhibition by MTT assay. Type of data set: functional, cell-based.
Another data set deals with J774. The data set can be described thus: Antiproliferative activity in mouse J774 cells assessed as cell growth inhibition. Type of data set: functional, cell-based.
A short description of data set [1]: Antiproliferative activity in mouse WEHI-3 cells assessed as cell growth inhibition. The data set is classed as functional, cell-based.
Data set [2] can be described thus: Antiproliferative activity in human Cervical carcinoma cell assessed as cell growth inhibition. The data set is classed as functional, cell-based.
A short description of data set [3]: Cytotoxicity against human Bone marrow cell assessed as cell growth inhibition. The data set is classed as toxicity, cell-based. As to conditions: bone marrow cells.
Data set [4] in a line: Induction of apoptosis in human PBMC cells. Type of data set: functional.
The subject of the next data set is DMS-114. Kind of data set: Antiproliferative activity in human DMS-114 cells assessed as cell growth inhibition by MTT assay. Type of data set: functional, cell-based.
The next data set has as its system TSU. The data set can be described thus: Antiproliferative activity in human TSU cells assessed as cell growth inhibition. Type of data set: functional, cell-based.
Another data set relates to PPC-1. The data set can be described thus: Antiproliferative activity in human PPC-1 cells assessed as cell growth inhibition. Type of data set: functional, cell-based.
Another data set concerns Ca-Ski. The data set can be described thus: Antiproliferative activity in human Ca-Ski cells assessed as cell growth inhibition. Type of data set: functional, cell-based.
Data set [5] can be described thus: AUC in sc dosed mouse. Type of data set: ADME, organism-based. Also on record: route sc. As to conditions: in vivo.
Data set [6] is described as follows: AUC in po dosed mouse. The data set is classed as ADME, organism-based. The arrangement: route po. The note with it: in vivo.
The test system of the next data set is C6. The data set can be described thus: Antiproliferative activity against rat C6 cells assessed as inhibition of cell growth at 10 uM relative to control. The data set is classed as functional. Also on record: scale not given: the % may be the effect or the level left.
Data set [7] is described as follows: Drug concentration in Sprague-Dawley rat hepatocytes measured after 30 mins relative to control. Type of data set: ADME, cell-based, Hepatocyte. The note with it: 0.5 h.
Data set [8] in a line: Drug concentration in rat enterocytes measured after 30 to 60 mins relative to control.

The source of these data is ChEMBL document CHEMBL5226292, “Nonpungent N-AVAM Capsaicin Analogues and Cancer Therapy” (J Med Chem, 2021).

Converted amounts (≈) assume the structure as drawn.

Turning to `CCCCCCCCCCCCCCCC(=O)NCc1ccc(O)c(OC)c1`, the IC50 in the data set on MCF7 was found to be 2200 nM; with T47D, 1600 nM; in the data set with EFM-19 it was 1000 nM.

Take `CCCCCC[C@H](O)C/C=C\CCCCCCCC(=O)NCc1ccc(O)c(OC)c1`: the IC50 with P388 stood at 9 µg/mL (≈ 20.8 µM); in the data set with J774, 8 µg/mL (≈ 18.4 µM); in [1] it was 3 µg/mL (≈ 6.92 µM); in data set [2] it was 149 µg/mL (≈ 344 µM); in data set [3], 40 µg/mL (≈ 92.2 µM).

As for `CCCCC/C=C\C/C=C\C/C=C\C/C=C\CCCC(=O)NCc1ccc(O)c(OC)c1`, the IC50 in the data set with MCF7 was found to be 400 nM; in the data set with T47D, 350 nM; in the data set on EFM-19, 550 nM; with DMS-114, 15000 nM; with TSU, 100 nM; with PPC-1, 1000 nM. For the same compound, the Activity in data set [4] was 60%.

Consider `CCCCCC[C@@H](C/C=C\CCCCCCCC(=O)NCc1ccc(O)c(OC)c1)OC(=O)Cc1ccccc1`, for which the IC50 worked out at 49 µg/mL (≈ 88.8 µM) in the data set with P388; 10 µg/mL (≈ 18.1 µM) in the data set on J774; 31 µg/mL (≈ 56.2 µM) in data set [1]; 74 µg/mL (≈ 134 µM) in data set [2]; 122 µg/mL (≈ 221 µM) with Ca-Ski; 73 µg/mL (≈ 132 µM) in data set [3].

Take `CC/C=C\C/C=C\C/C=C\CCCCCCCC(=O)NCc1ccc(O)c(OC)c1`: the IC50 in the data set on DMS-114 amounted to 15000 nM.

As to `CCCCC/C=C\C/C=C\CCCCCCCC(=O)NCc1ccc(O)c(OC)c1`, the IC50 in the data set with DMS-114 was 43000 nM.

Turning to `CCCCCCCC/C=C\CCCCCCCC(=O)NCc1ccc(O)c(OC)c1` [OLVANIL], the AUC was determined as 8 µg·h/g in data set [5] and 0.1 µg·h/g in data set [6]. In addition, the IC50 in the data set on MCF7 was 1000 nM; in the data set with T47D, 750 nM; in the data set with EFM-19, 700 nM; with DMS-114, above 50000 nM. The Activity in data set [4] turned out to be 20.5%; with C6, 95%. The figures for the Drug uptake in data set [7] and in data set [8] were 4% and 1%, respectively.

Regarding `COc1cc(CNC(=O)CCCC/C=C/C(C)C)ccc1O` [CAPSAICIN], the IC50 in the data set with MCF7 and in the data set with T47D was 100000 nM throughout. Moreover, in the data set with C6, the Activity is 20%.

The IC50 is the midpoint of a concentration-inhibition curve.
